Results as given in patent publication US20260174875A1 (Novo Nordisk A/S, priority 2023, published 2026).
Numbered stars: 1 amine (or outer) side, 2 acyl side, 3 side chain; on linkers, the order of the positions; unused ones are H or OH. Square brackets hold non-standard residues; d marks the D form. Side chains are listed from the residue outwards. * marks the point of attachment. C18 diacid = O=C(O)CCCCCCCCCCCCCCCCC(=O)*; γGlu = O=C(O)[C@H](CCC(=O)[*:2])N[*:1]; AEEA = NCCOCCOCC(=O)O; Aib = CC(C)(N)C(=O)O

Assays:
[1] = target: T1, human amylin receptor (hAMYR3) (Homo sapiens, UniProt O60896+P30988); experiment: Amylin receptor assay, method B (CRE-luciferase reporter, BHK cells); type: cell-based
T1 construct: host or cells: BHK cells (Hollex-1 line expressing hCTR(a) and CRE-Luc), further transfected with human RAMP3
T1 sequence (P30988 25-474): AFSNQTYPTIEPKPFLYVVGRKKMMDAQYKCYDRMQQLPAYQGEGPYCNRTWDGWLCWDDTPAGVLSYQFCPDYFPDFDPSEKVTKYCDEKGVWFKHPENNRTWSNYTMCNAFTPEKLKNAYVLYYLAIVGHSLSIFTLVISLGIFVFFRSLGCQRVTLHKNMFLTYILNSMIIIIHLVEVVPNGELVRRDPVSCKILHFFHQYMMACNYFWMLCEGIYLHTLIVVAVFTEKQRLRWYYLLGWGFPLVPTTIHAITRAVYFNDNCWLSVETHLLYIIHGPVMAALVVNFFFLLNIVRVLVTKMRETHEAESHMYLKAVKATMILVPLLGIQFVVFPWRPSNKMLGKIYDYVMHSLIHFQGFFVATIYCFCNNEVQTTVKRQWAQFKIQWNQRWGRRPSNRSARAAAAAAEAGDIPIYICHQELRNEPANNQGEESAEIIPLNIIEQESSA
T1 sequence (O60896 24-148): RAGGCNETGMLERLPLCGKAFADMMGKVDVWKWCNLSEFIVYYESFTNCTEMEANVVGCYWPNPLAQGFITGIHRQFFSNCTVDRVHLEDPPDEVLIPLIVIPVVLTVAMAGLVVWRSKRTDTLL
Protocol: To assess how the activation of the receptors is potentially influenced by the presence of human serum albumin (HSA), the in vitro assays were performed in the absence of HSA and presence of 1% (w/v) HSA.
It is thus possible to measure hAMYR3 activity using a CRE-luciferase reporter gene introduced into Baby Hamster Kidney (BHK) cells co-expressing the hAMYR3.
The cell line was further transfected with human receptor modifying protein 3 (RAMP3) using standard methods.
After centrifugation, the cell pellet was resuspended and diluted to approximately 2.5-4.0×10^6 (2.5E+6 to 4.0E+6) cells/mL in Recovery™ Cell Culture Freezing Medium (Gibco, 12648-010). Cells were aliquoted and stored at −180° C. until use.
The assay buffer consisted of DMEM without phenol red (Gibco, 11880-028) supplemented with 1× GlutaMAX (Gibco, 35050-038), 10 mM HEPES (Gibco, 15630-056) and 1% (w/v) ovalbumin (Sigma, A5503) either with or without 0.1% (v/v) Pluronic F-68 (Gibco, 24040-032) and either with or without HSA (Sigma, A9511).
To perform the assay, hAMYR3 BHK Cre-Luc cells were thawed, washed once in PBS (Gibco 14190-094) and seeded in 40 μL growth medium in a white 384-well culture plate (PerkinElmer/Revvity, 6007688) at a cell density of 4.0×10^3 (4.0E+3) cells/well the day before the experiment. The plate was incubated over night at 37° C. in 5% CO2. […] Serial dilutions were then mixed in a new 96-well plate with equal volume (1:1:1 ratio) of assay buffer and either assay buffer without or with 3% HSA (Sigma, A-9511). Twenty microliters of the solution mix were transferred to the cells which previously were washed once with PBS (Gibco 14190-094). After a short centrifugation, the assay plates were incubated for 3 hours at 37° C. in 5% CO2 and let to equilibrated at room temperature for 10 minutes before the addition of 30 μL steadylite Plus™ PerkinElmer/Revvity, 6066759) per well. Plates were sealed and incubated at room temperature with gentle shaking for 30 minutes while protected from light. Luminescence was detected on a luminescence plate reader e.g., a Synergy 2 (BioTek).

[2] = target: T2, human GLP-1 receptor (hGLP-1R) (Homo sapiens, UniProt P43220); experiment: GLP-1 receptor assay, method B (CRE-luciferase reporter, BHK cells, 384-well); type: cell-based
T2 construct: expressed in transfected cells
T2 sequence (P43220 24-463): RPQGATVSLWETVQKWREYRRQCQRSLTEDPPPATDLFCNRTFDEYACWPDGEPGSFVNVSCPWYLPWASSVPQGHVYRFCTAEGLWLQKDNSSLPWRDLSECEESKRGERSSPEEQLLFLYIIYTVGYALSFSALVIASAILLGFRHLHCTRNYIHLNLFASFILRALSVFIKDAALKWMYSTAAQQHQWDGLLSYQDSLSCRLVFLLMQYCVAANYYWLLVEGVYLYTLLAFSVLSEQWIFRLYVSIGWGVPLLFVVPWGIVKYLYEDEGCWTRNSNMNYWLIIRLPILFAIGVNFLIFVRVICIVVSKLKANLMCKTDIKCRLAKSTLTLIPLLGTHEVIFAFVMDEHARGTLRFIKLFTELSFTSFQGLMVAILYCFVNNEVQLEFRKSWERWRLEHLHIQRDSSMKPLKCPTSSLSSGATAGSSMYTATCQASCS

[3] = target: T3, human GIP receptor (hGIPR) (Homo sapiens, UniProt P48546); experiment: GIP receptor assay, method B (CRE-luciferase reporter, BHK cells, 384-well); type: cell-based
T3 construct: expressed in transfected cells
T3 sequence (P48546 22-466): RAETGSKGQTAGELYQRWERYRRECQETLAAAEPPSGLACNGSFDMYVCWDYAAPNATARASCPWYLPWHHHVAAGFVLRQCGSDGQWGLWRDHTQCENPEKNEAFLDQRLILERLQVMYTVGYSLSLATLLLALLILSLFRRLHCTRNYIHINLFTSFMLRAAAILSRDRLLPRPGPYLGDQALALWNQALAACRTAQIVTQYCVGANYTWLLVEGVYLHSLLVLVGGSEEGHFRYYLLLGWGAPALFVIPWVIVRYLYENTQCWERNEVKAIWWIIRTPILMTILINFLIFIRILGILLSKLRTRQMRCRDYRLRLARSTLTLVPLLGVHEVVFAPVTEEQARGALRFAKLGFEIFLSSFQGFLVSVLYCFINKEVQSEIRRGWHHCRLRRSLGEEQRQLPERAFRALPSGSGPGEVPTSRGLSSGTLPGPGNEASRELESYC

[4] = Chemical stability assessment in formulation (UPLC-UV-MS purity loss at 37° C.); type: physicochemical; settings: 8 mM phosphate buffer pH 7.4, 1 mg/mL, 2 weeks
Procedure, shortened: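 Degradation tracked by UPLC-UV-MS (formic acid/acetonitrile gradient) on samples drawn over 2 weeks at 37° C. Solutions were made at a 1 mg/mL target in 8 mM phosphate, pH 7.4, kept in sealed vials and frozen after sampling.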

[5] = target: T3, human GIP receptor (hGIPR); experiment: GIP receptor assay, method A (CRE-luciferase reporter, BHK cells); type: cell-based
Procedure, shortened: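 Receptor activation was read as luciferase luminescence in hGIPR-expressing BHK CRE-Luc cells after 3 h compound exposure at 37 °C. Titrations (10-fold, 7 points, duplicate) ran in buffer containing 1% ovalbumin, with 1% HSA final or without; EC50 in pM fitted by four-parameter logistic model, Hill slope shared.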

[6] = target: T2, human GLP-1 receptor (hGLP-1R); experiment: GLP-1 receptor assay, method A (CRE-luciferase reporter, BHK cells); type: cell-based
Procedure, shortened: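 BHK cells expressing hGLP-1R with a CRE-luciferase reporter were thawed from frozen stocks and exposed to compound for 3 hours at 37° C in 5% CO2. The assay buffer was phenol red-free DMEM with 10 mM HEPES, 1% (w/v) ovalbumin and 0.1% Pluronic F-68, with or without 1% (w/v) HSA.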

[7] = target: T1, human amylin receptor (hAMYR3); experiment: Amylin receptor assay, method A (CRE-luciferase reporter, BHK cells); type: cell-based
[8] = hAMYR3 Potency, 1% HSA, EC50, methods B, in the presence of 1% HSA
[9] = method B, absence of HSA, read-out: hAMYR3 Potency, no HSA, EC50
[10] = hGLP-1R Potency, 1% HSA, EC50, methods B, in the presence of 1% HSA
[11] = hGIPR Potency, 1% HSA, EC50, methods B, in the presence of 1% HSA
[12] = method B, absence of HSA, read-out: hGIPR Potency, no HSA, EC50
[13] = hGIPR Potency, 1% HSA, EC50, method A, in the presence of 1% HSA
[14] = method A, absence of HSA, read-out: hGIPR Potency, no HSA, EC50
[15] = hGLP-1R Potency, 1% HSA, EC50, method A, in the presence of 1% HSA
[16] = method A, absence of HSA, read-out: hGLP-1R Potency, no HSA, EC50
[17] = hAMYR3 Potency, 1% HSA, EC50, method A, in the presence of 1% HSA
[18] = method A, absence of HSA, read-out: hAMYR3 Potency, no HSA, EC50

Row | Compound | EC50 [1, 8] [pM] | EC50 [1, 9] [pM] | EC50 [2, 10] [pM] | EC50 [3, 11] [pM] | EC50 [3, 12] [pM] | EC50 ([2]; method B, absence of HSA, read-out: hGLP-1R Potency, no HSA, EC50) [pM] | Purity loss per week at 37° C. [4] [%] | EC50 [5, 13] [pM] | EC50 [5, 14] [pM] | EC50 [6, 15] [pM] | EC50 [6, 16] [pM] | EC50 [7, 17] [pM] | EC50 [7, 18] [pM]
1 | CC[C@H](C)[C@H](NC(=O)[C@H](CCC(=O)O)NC(=O)[C@H](CCC(=O)O)NC(=O)[C@H](CC(C)C)NC(=O)[C@H](CC(C)C)NC(=O)[C@@H](NC(=O)[C@H](CO)NC(=O)[C@H](Cc1ccc(O)cc1)NC(=O)[C@H](CC(=O)O)NC(=O)[C@H](CO)NC(=O)[C@@H](NC(=O)[C@H](Cc1ccccc1)NC(=O)[C@@H](NC(=O)CNC(=O)[C@H](CCC(=O)O)NC(=O)C(C)(C)NC(=O)[C@@H](N)Cc1ccc(O)cc1)[C@@H](C)O)[C@@H](C)O)[C@@H](C)CC)C(=O)N[C@@H](C)C(=O)N[C@@H](C)C(=O)N[C@@H](CCCNC(=N)N)C(=O)N[C@@H](CCC(=O)O)C(=O)N[C@@H](Cc1ccccc1)C(=O)N[C@H](C(=O)N[C@@H](CCC(=O)O)C(=O)N[C@@H](Cc1c[nH]c2ccccc12)C(=O)N[C@@H](CC(C)C)C(=O)N[C@@H](CC(C)C)C(=O)N[C@@H](C)C(=O)NCC(=O)NCC(=O)N1CCC[C@H]1C(=O)N[C@@H](CO)C(=O)N[C@@H](CO)C(=O)NCC(=O)N[C@@H](C)C(=O)NCC(=O)N[C@@H](CCC(N)=O)C(=O)N[C@@H](C)C(=O)N1CCC[C@H]1C(=O)NCC(=O)N[C@@H](CCC(N)=O)C(=O)N[C@@H](C)C(=O)N1CCC[C@H]1C(=O)NCC(=O)N[C@@H](C)C(=O)N[C@@H](CO)C(=O)N[C@@H](Cc1c[nH]cn1)C(=O)N[C@@H](CC(C)C)C(=O)N[C@@H](CO)C(=O)N[C@H](C(=O)N[C@@H](C)C(=O)N[C@@H](CCC(N)=O)C(=O)N[C@H](C(=O)N[C@@H](CCC(N)=O)C(=O)N[C@@H](CCCNC(=N)N)C(=O)N[C@@H](CC(C)C)C(=O)N[C@@H](CO)C(=O)N[C@@H](C)C(=O)N[C@@H](CCC(=O)O)C(=O)N[C@@H](CC(C)C)C(=O)N[C@@H](Cc1c[nH]cn1)C(=O)N[C@@H](CCCCNC(=O)COCCOCCNC(=O)COCCOCCNC(=O)CC[C@H](NC(=O)CCCCCCCCCCCCCCCCCCC(=O)O)C(=O)O)C(=O)N[C@@H](CC(C)C)C(=O)N[C@@H](C)C(=O)N[C@H](C(=O)N[C@@H](CC(C)C)C(=O)N1CCC[C@H]1C(=O)N[C@@H](CCCNC(=N)N)C(=O)N[C@H](C(=O)N[C@@H](CCC(=O)O)C(=O)N[C@H](C(=O)NCC(=O)N[C@@H](CO)C(=O)NCC(=O)N[C@@H](CO)C(=O)N1CCC[C@H]1C(N)=O)[C@@H](C)O)[C@@H](C)O)[C@@H](C)O)[C@@H](C)O)[C@@H](C)O)[C@@H](C)CC [Compound 120] | 774 | 6.31 | 129 | 20 | 2.9 | – | – | – | – | – | – | – | –
2 | CC[C@H](C)[C@H](NC(=O)[C@H](CCC(=O)O)NC(=O)[C@H](CCC(=O)O)NC(=O)[C@H](CC(C)C)NC(=O)[C@H](CC(C)C)NC(=O)[C@@H](NC(=O)[C@H](CO)NC(=O)[C@H](Cc1ccc(O)cc1)NC(=O)[C@H](CC(=O)O)NC(=O)[C@H](CO)NC(=O)[C@@H](NC(=O)[C@H](Cc1ccccc1)NC(=O)[C@@H](NC(=O)CNC(=O)[C@H](CCC(=O)O)NC(=O)C(C)(C)NC(=O)[C@@H](N)Cc1ccc(O)cc1)[C@@H](C)O)[C@@H](C)O)[C@@H](C)CC)C(=O)N[C@@H](C)C(=O)N[C@@H](C)C(=O)N[C@@H](CCCNC(=N)N)C(=O)N[C@@H](CCC(=O)O)C(=O)N[C@@H](Cc1ccccc1)C(=O)N[C@H](C(=O)N[C@@H](CCC(=O)O)C(=O)N[C@@H](Cc1c[nH]c2ccccc12)C(=O)N[C@@H](CC(C)C)C(=O)N[C@@H](CC(C)C)C(=O)N[C@@H](C)C(=O)NCC(=O)NCC(=O)N1CCC[C@H]1C(=O)N[C@@H](CO)C(=O)N[C@@H](CO)C(=O)NCC(=O)N[C@@H](C)C(=O)NCC(=O)N[C@@H](CCC(N)=O)C(=O)N[C@@H](C)C(=O)N[C@@H](CCC(=O)O)C(=O)NCC(=O)N[C@@H](CCC(N)=O)C(=O)N[C@@H](C)C(=O)N1CCC[C@H]1C(=O)NCC(=O)N[C@@H](C)C(=O)N[C@@H](CO)C(=O)N[C@@H](Cc1c[nH]cn1)C(=O)N[C@@H](CC(C)C)C(=O)N[C@@H](CO)C(=O)N[C@H](C(=O)N[C@@H](C)C(=O)N[C@@H](CCC(N)=O)C(=O)N[C@H](C(=O)N[C@@H](CCC(N)=O)C(=O)N[C@@H](CCCNC(=N)N)C(=O)N[C@@H](CC(C)C)C(=O)N[C@@H](CO)C(=O)N[C@@H](C)C(=O)N[C@@H](CCC(=O)O)C(=O)N[C@@H](CC(C)C)C(=O)N[C@@H](Cc1c[nH]cn1)C(=O)N[C@@H](CCCCNC(=O)COCCOCCNC(=O)COCCOCCNC(=O)CC[C@H](NC(=O)CCCCCCCCCCCCCCCCCCC(=O)O)C(=O)O)C(=O)N[C@@H](CC(C)C)C(=O)N[C@@H](C)C(=O)N[C@H](C(=O)N[C@@H](CC(C)C)C(=O)N1CCC[C@H]1C(=O)N[C@@H](CCCNC(=N)N)C(=O)N[C@H](C(=O)N[C@@H](CCC(=O)O)C(=O)N[C@H](C(=O)NCC(=O)N[C@@H](CO)C(=O)NCC(=O)N[C@@H](CO)C(=O)N1CCC[C@H]1C(N)=O)[C@@H](C)O)[C@@H](C)O)[C@@H](C)O)[C@@H](C)O)[C@@H](C)O)[C@@H](C)CC [Compound 150] | 961 | 7.61 | 65.3 | 10.7 | 2.99 | 26.2 | – | – | – | – | – | – | –
3 | H[Aib]HGTFTSDYSILLEEQAAREFIEWLLAGGPSSGEASHLSTAQTQRLSAELHRLATLPK([AEEA-AEEA-γGlu-C18 diacid])TETGSGSP-NH2 [Compound 84] | – | – | – | – | – | – | 2.9 | 11.6 | 3 | 25.9 | 3.31 | 175 | 4.41
4 | H[Aib]HGTFTSDYSILLEEQAAREFIEWLLAGGPSSGEASHLSTAQTQRLSAELHRLK([AEEA-AEEA-γGlu-C18 diacid])TLPRTETGSGSP-NH2 [Compound 83] | – | – | – | – | – | – | 2.3 | 13.6 | 2.92 | 9.89 | 2.3 | 45.7 | 2.9
